Results as given in patent US20090226901A1, “Method of evaluating or selecting agents for preventing or improving pigmented spots” (Kao Corporation, priority 2008, published 2009).

Legend:
HCT116 cells = conditions: HCT116 human colon cancer cell line; Cell, 124, 207-219, 2006; cited from earlier work
endothelin-1 gene [1] = test: endothelin-1 gene expression in cultured human epidermal keratinocytes, quantitative PCR; type: cell-based; conditions: cultured epidermal cells
Procedure: (§1) Human epidermal cells derived from neonatal foreskin were purchased from Kurabo Industries Ltd., and were precultured in a serum-free basal growth medium (EpiLife, product of Kurabo Industries Ltd.) in an atmosphere of 5% (v/v) CO2 at 37° C. The thus-precultured epidermal cells were inoculated into a 6-well culture plate (product of Falcon) (1.0×10^5 cells/well). Twenty-four hours thereafter, the cells were cultured in a growth medium without including BPE (bovine pituitary gland extract) and hEGF (human epidermal growth factor), and 24 hours thereafter, 5-fluorouracil (5-FU, product of Calbiochem), which is a conventionally known p53 activator, was added at a concentration of 1 or 10 μg/mL. After 48-hour treatment, total RNA was extracted by use of TRIzol® Reagent (product of Invitrogen Corporation). Specifically, each well of the culture plate was washed with PBS, and TRIzol® Reagent (1 mL) was added to the well. […]
(§2) The thus-extracted total RNA was subjected to reverse transcription to synthesize cDNA, and the thus-synthesized cDNA was employed for gene expression analysis through quantitative PCR using TaqMan® probe. In the present Example, specifically, expression levels of SCF (KITLG) gene (Assay ID: Hs00241497_m1) and endothelin-1 gene (Assay ID: Hs00174961_m1) were measured. […]

SCF (KITLG) gene [2] = test: SCF (KITLG) gene expression in cultured human epidermal keratinocytes, quantitative PCR; type: cell-based; conditions: cultured epidermal cells
Procedure: as §1, §2

SCF (KITLG) gene [3] = test: SCF (KITLG) gene expression in organ-cultured skin tissue of pigmentatio petaloides actinica, RT-PCR; type: cell-based, human; conditions: 10 μM PFT, 72 hours organ culture, epidermis, relative to control spot sample, FIG. 6
Text: (§3) Through a contract laboratory of Stephens & Associates (Carrollton, Tex.), subjects having spots were recruited. A dermatologist, contractor of the laboratory, collected samples of skin tissue with pigmentatio petaloides actinica from the shoulder (at two sites for each subject) in two subjects at with a biopsy trepan (diameter: 4 mm). Thereafter, the thus-collected skin biopsy samples were immersed in Dulbecco's modified Eagle's medium (DMEM), and transported to the Cincinnati branch of Biological Science Americas Laboratories while being maintained at about 4 to 10° C. […]
(§4) Thereafter, total RNA was extracted by use of RNeasy micro kit (Qiagen), and cDNA was synthesized through a customary method by means of ThermoScript RT-PCR Systems (Invitrogen, Carlsbad, Calif.). Probes specific to tyrosinase mRNA, SCF (KITLG) mRNA, and endothelin-1 mRNA were obtained from TaqMan® Gene Expression Assays (Applied Biosystems) (Assay IDs: Hs00165976_m1, Hs00241497_m1, and Hs00174961_ml), and real-time quantitative RT-PCR was carried out by means of ABI PRISM 7300 sequence detection system (Applied Biosystems). […] The expression level of each gene in the PFT-treated spot sample was calculated relative to that of the gene in a control spot sample (taken as 1).

endothelin-1 gene [4] = test: endothelin-1 gene expression in organ-cultured skin tissue of pigmentatio petaloides actinica, RT-PCR; type: cell-based, human; conditions: 10 μM PFT, 72 hours organ culture, epidermis, relative to control spot sample, FIG. 6
Text: as §3, §4

[5] = test system: three-dimensional cultured skin model (MEL-300A); test: melanin content of three-dimensional cultured skin model (MEL-300A); type: cell-based, human; conditions: culturing for 14 days, absorbance at 405 nm, relative to control (100%), FIG. 5
Procedure: A three-dimensional cultured skin model (MEL-300A) was purchased from Kurabo Industries Ltd. Immediately after the product had been obtained, a tissue cup was transferred into a 6-well culture plate (product of Falcon), and cultured overnight in a long-term maintenance medium (EPI-100-NMM-113, product of Kurabo Industries Ltd.) (1 mL), in an atmosphere of […] at 37° C. Subsequently, pifithrin-α (PFT), which is a conventionally known p53 inhibitor, was added, followed by culturing for 14 days. Culturing was carried out by allowing the tissue cup to stand still on a sterilized stainless steel washer (product of Kurabo Industries Ltd.) and by use of a long-term maintenance medium (5 mL). Medium was exchanged every three days. After culturing, skin tissue was removed from the tissue cup with tweezers, and then washed thrice with PBS, once with 5% (v/v) trichloroacetic acid, and once with a mixture of diethyl ether and ethanol (1:3 by volume). Thereafter, the thus-washed skin tissue was incubated at 50° C. for two hours, to thereby dry the tissue. Subsequently, the tissue was dissolved in 2N aqueous sodium hydroxide solution (2N) (200 μL), followed by centrifugation at 15,000 rpm for 15 minutes. Thereafter, the culture supernatant was recovered, and absorbance was measured at 405 nm, to thereby calculate the melanin content in the tissue.

tyrosinase gene = tyrosinase gene expression in organ-cultured skin tissue of pigmentatio petaloides actinica, RT-PCR; type: cell-based, human; conditions: 10 μM PFT, 72 hours organ culture, epidermis, relative to control spot sample, FIG. 6
Text: as §3, §4

[6] = 5-FU 1 or 10 μg/mL, 48-hour treatment, FIG. 3
[7] = PFT 1 or 10 μM, 24-hours culturing, FIG. 4

| SMILES | expression level of SCF (KITLG) gene (HCT116 cells) | expression of endothelin-1 gene (endothelin-1 gene [1]; [6]) | expression of SCF (KITLG) gene (SCF (KITLG) gene [2]; [6]) | expression of endothelin-1 gene (endothelin-1 gene [1]; [7]) | expression level of SCF (KITLG) gene (SCF (KITLG) gene [3]) | expression of endothelin-1 gene (endothelin-1 gene [4]) | expression of SCF (KITLG) gene (SCF (KITLG) gene [2]; [7]) | melanin contents [5] | expression level of tyrosinase gene (tyrosinase gene) |
| --- | --- | --- | --- | --- | --- | --- | --- | --- | --- |
| O=c1[nH]cc(F)c(=O)[nH]1 [5-fluorouracil] | induced | significantly induced | significantly induced |  |  |  |  |  |  |
| Cc1ccc(C(=O)Cn2c3c(sc2=N)CCCC3)cc1 [pifithrin-α] |  |  |  | significantly decreased | significantly decreased | tended to be significantly decreased | significantly decreased | decreased the melanin contents of the three-dimensional cultured skin model in a dose-dependent manner | significantly decreased |
